Data taken from patent US10538555B2, “Macrocyclic inhibitors of the PD-1/PD-L1 and CD80(B7-1)/PD-L1 protein/protein interactions” (BRISTOL-MYERS SQUIBB COMPANY, priority 2014, dated 2020).
pIC50: −log10 of the molar value. *1 amine or outer side, *2 acyl side, *3 side chain or, on linkers, in order; H or OH if unused. Where a SMILES comes first, the peptide text is derived from it. Bridges are numbered along the chain shown (N, C = ends). [ ]: non-standard residue; d: D form. ξ: configuration not given here. X7 = CCCC[C@@H](C(=O)C[C@@H](CO)C(=O)[*:2])N(C)[*:1]; Bta = N[C@@H](Cc1csc2ccccc12)C(=O)O; Hyp = O=C(O)[C@@H]1C[C@@H](O)CN1; NMeNle = CCCC[C@H](NC)C(=O)O; hSer = N[C@@H](CCO)C(=O)O; NMeA = CN[C@@H](C)C(=O)O; ξC = NC(CS)C(=O)O

What follows are molecules tested against T1, Human PD-L1/PD-1 (Homo sapiens, UniProt Q9NZQ7) (assay: HTRF Human PD-L1/PD-1 binding assay (PD-1-Ig/PD-L1-His)). Settings: PD-L1-His 10 nM, PD-1-Ig 20 nM; class symbol; read-out: HTRF Human PD-L1/PD-1 Binding Assay IC50 Range.
T1 construct: TVMV protease cleavage site (C); made in house; host or cells: HEK293T cells
T1 sequence (Q9NZQ7 with tags, fused parts or gaps): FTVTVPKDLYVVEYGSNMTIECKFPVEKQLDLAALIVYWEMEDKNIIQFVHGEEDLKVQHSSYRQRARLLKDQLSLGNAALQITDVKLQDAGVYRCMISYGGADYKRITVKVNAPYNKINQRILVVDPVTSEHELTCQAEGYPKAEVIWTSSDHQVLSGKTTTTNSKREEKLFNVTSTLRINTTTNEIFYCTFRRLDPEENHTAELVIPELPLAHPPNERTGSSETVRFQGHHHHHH
How it was run: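 Competition of macrocyclic peptides for PD-1/PD-L1 binding measured by HTRF in dPBS containing 0.1% BSA and 0.05% Tween-20. Compound and PD-L1-His (10 nM final) incubated 15 min before PD-1-Ig (20 nM final) and a further 15 min.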
With `CCCC[C@H]1C(=O)N(C)[C@@H](CCCC)C(=O)N[C@@H](CCCNC(=N)N)C(=O)NC(C(=O)NCC(N)=O)CSCC(=O)N[C@@H](Cc2ccc(O)cc2)C(=O)N(C)[C@@H](C)C(=O)N[C@@H](CC(N)=O)C(=O)N2CCC[C@H]2C(=O)N[C@@H](CC(N)=O)C(=O)N[C@@H](CC(C)C)C(=O)N2C[C@H](O)C[C@H]2C(=O)N[C@@H](Cc2c[nH]c3ccccc23)C(=O)N[C@@H](CCO)C(=O)N[C@@H](Cc2csc3ccccc23)C(=O)N1C` (stereo partly shown) [Example 9131] ({CH2CO}-Y[NMeA]NPNL[Hyp]W[hSer][Bta][NMeNle][NMeNle]R[ξC]G-NH2; thioether N-14) the pIC50 was 8.00 to 9.00. `CCCC[C@H]1C(=O)N(C)[C@@H](CCCC)C(=O)N[C@@H](C)C(=O)NC(C(=O)NCC(N)=O)CSCC(=O)N[C@@H](Cc2ccc(O)cc2)C(=O)N(C)[C@@H](C)C(=O)N[C@@H](CC(N)=O)C(=O)N2CCC[C@H]2C(=O)N[C@@H](CC(N)=O)C(=O)N[C@@H](CC(C)C)C(=O)N2CCC[C@H]2C(=O)N[C@@H](Cc2c[nH]c3ccccc23)C(=O)N[C@@H](CO)C(=O)N[C@@H](Cc2c[nH]c3ccccc23)C(=O)N1C` (stereo partly shown) [Example 9132] ({CH2CO}-Y[NMeA]NPNLPWSW[NMeNle][NMeNle]A[ξC]G-NH2; thioether N-14) was tested, and the pIC50 was 7.00 to 8.00. `CCCC[C@H]1C(=O)N(C)[C@@H](CCCC)C(=O)N[C@@H](C)C(=O)NC(C(=O)NCC(N)=O)CSCC(=O)N[C@@H](Cc2ccc(O)cc2)C(=O)N(C)[C@@H](C)C(=O)N[C@@H](CC(N)=O)C(=O)N2CCC[C@H]2C(=O)N[C@@H](CC(N)=O)C(=O)N[C@@H](CC(C)C)C(=O)N2CCC[C@H]2C(=O)N[C@@H](Cc2c[nH]c3ccccc23)C(=O)N[C@@H](CO)C(=O)N[C@@H](Cc2csc3ccccc23)C(=O)N1C` (stereo partly shown) [Example 9133] ({CH2CO}-Y[NMeA]NPNLPWS[Bta][NMeNle][NMeNle]A[ξC]G-NH2; thioether N-14) was tested, and the pIC50 was 8.00 to 9.00. Work on `CCCC[C@H]1C(=O)N(C)[C@@H](CCCC)C(=O)N[C@@H](C)C(=O)NC(C(=O)NCC(N)=O)CSCC(=O)N[C@@H](Cc2ccc(O)cc2)C(=O)N(C)[C@@H](C)C(=O)N[C@@H](CC(N)=O)C(=O)N2CCC[C@H]2C(=O)N[C@@H](CC(N)=O)C(=O)N[C@@H](CC(C)C)C(=O)N2C[C@H](O)C[C@H]2C(=O)N[C@@H](Cc2c[nH]c3ccccc23)C(=O)N[C@@H](CO)C(=O)N[C@@H](Cc2c[nH]c3ccccc23)C(=O)N1C` (stereo partly shown) [Example 9134] yielded a pIC50 of 8.00 to 9.00. Molecule `CCCC[C@H]1C(=O)N(C)[C@@H](CCCC)C(=O)N[C@@H](C)C(=O)NC(C(=O)NCC(N)=O)CSCC(=O)N[C@@H](Cc2ccc(O)cc2)C(=O)N(C)[C@@H](C)C(=O)N[C@@H](CC(N)=O)C(=O)N2CCC[C@H]2C(=O)N[C@@H](CC(N)=O)C(=O)N[C@@H](CC(C)C)C(=O)N2C[C@H](O)C[C@H]2C(=O)N[C@@H](Cc2c[nH]c3ccccc23)C(=O)N[C@@H](CO)C(=O)N[C@@H](Cc2csc3ccccc23)C(=O)N1C` (stereo partly shown) [Example 9135] ({CH2CO}-Y[NMeA]NPNL[Hyp]WS[Bta][NMeNle][NMeNle]A[ξC]G-NH2; thioether N-14) has a pIC50 of 8.00 to 9.00. Molecule `CCCC[C@H]1C(=O)N(C)[C@@H](C)C(=O)N[C@@H](CCCNC(=N)N)C(=O)NC(C(=O)NCC(N)=O)CSCC(=O)N[C@@H](Cc2ccc(O)cc2)C(=O)N(C)[C@@H](C)C(=O)N[C@@H](CC(N)=O)C(=O)N2CCC[C@H]2C(=O)N[C@@H](CC(N)=O)C(=O)N[C@@H](CC(C)C)C(=O)N2CCC[C@H]2C(=O)N[C@@H](Cc2c[nH]c3ccccc23)C(=O)N[C@@H](CO)C(=O)N[C@@H](Cc2c[nH]c3ccccc23)C(=O)N1C` (stereo partly shown) [Example 9136] ({CH2CO}-Y[NMeA]NPNLPWSW[NMeNle][NMeA]R[ξC]G-NH2; thioether N-14) has a pIC50 of 7.00 to 8.00. `CCCC[C@H]1C(=O)N(C)[C@@H](C)C(=O)N[C@@H](CCCNC(=N)N)C(=O)NC(C(=O)NCC(N)=O)CSCC(=O)N[C@@H](Cc2ccc(O)cc2)C(=O)N(C)[C@@H](C)C(=O)N[C@@H](CC(N)=O)C(=O)N2CCC[C@H]2C(=O)N[C@@H](CC(N)=O)C(=O)N[C@@H](CC(C)C)C(=O)N2CCC[C@H]2C(=O)N[C@@H](Cc2c[nH]c3ccccc23)C(=O)N[C@@H](CO)C(=O)N[C@@H](Cc2csc3ccccc23)C(=O)N1C` (stereo partly shown) [Example 9137] ({CH2CO}-Y[NMeA]NPNLPWS[Bta][NMeNle][NMeA]R[ξC]G-NH2; thioether N-14) was tested, and the pIC50 was 8.00 to 9.00. With `CCCC[C@H]1C(=O)N(C)[C@@H](C)C(=O)N[C@@H](CCCNC(=N)N)C(=O)NC(C(=O)NCC(N)=O)CSCC(=O)N[C@@H](Cc2ccc(O)cc2)C(=O)N(C)[C@@H](C)C(=O)N[C@@H](CC(N)=O)C(=O)N2CCC[C@H]2C(=O)N[C@@H](CC(N)=O)C(=O)N[C@@H](CC(C)C)C(=O)N2C[C@H](O)C[C@H]2C(=O)N[C@@H](Cc2c[nH]c3ccccc23)C(=O)N[C@@H](CO)C(=O)N[C@@H](Cc2c[nH]c3ccccc23)C(=O)N1C` (stereo partly shown) [Example 9138] ({CH2CO}-Y[NMeA]NPNL[Hyp]WSW[NMeNle][NMeA]R[ξC]G-NH2; thioether N-14) the pIC50 was 8.00 to 9.00. Molecule `CCCC[C@H]1C(=O)N(C)[C@@H](C)C(=O)N[C@@H](CCCNC(=N)N)C(=O)NC(C(=O)NCC(N)=O)CSCC(=O)N[C@@H](Cc2ccc(O)cc2)C(=O)N(C)[C@@H](C)C(=O)N[C@@H](CC(N)=O)C(=O)N2CCC[C@H]2C(=O)N[C@@H](CC(N)=O)C(=O)N[C@@H](CC(C)C)C(=O)N2C[C@H](O)C[C@H]2C(=O)N[C@@H](Cc2c[nH]c3ccccc23)C(=O)N[C@@H](CO)C(=O)N[C@@H](Cc2csc3ccccc23)C(=O)N1C` (stereo partly shown) [Example 9139] ({CH2CO}-Y[NMeA]NPNL[Hyp]WS[Bta][NMeNle][NMeA]R[ξC]G-NH2; thioether N-14) has a pIC50 of 8.00 to 9.00. `CCCC[C@H]1C(=O)N(C)[C@@H](CCCC)C(=O)N[C@@H](CO)C(=O)NC(C(=O)NCC(N)=O)CSCC(=O)N[C@@H](Cc2ccc(O)cc2)C(=O)N(C)[C@@H](C)C(=O)N[C@@H](CC(N)=O)C(=O)N2CCC[C@H]2C(=O)N[C@@H](CC(N)=O)C(=O)N[C@@H](CC(C)C)C(=O)N2CCC[C@H]2C(=O)N[C@@H](Cc2c[nH]c3ccccc23)C(=O)N[C@@H](CO)C(=O)N[C@@H](Cc2c[nH]c3ccccc23)C(=O)N1C` (stereo partly shown) [Example 9140] ({CH2CO}-Y[NMeA]NPNLPWSW[NMeNle][NMeNle]S[ξC]G-NH2; thioether N-14) gave a pIC50 of 8.00 to 9.00. With `CCCC[C@H]1C(=O)N(C)[C@@H](CCCC)C(=O)C[C@@H](CO)C(=O)NC(C(=O)NCC(N)=O)CSCC(=O)N[C@@H](Cc2ccc(O)cc2)C(=O)N(C)[C@@H](C)C(=O)N[C@@H](CC(N)=O)C(=O)N2CCC[C@H]2C(=O)N[C@@H](CC(N)=O)C(=O)N[C@@H](CC(C)C)C(=O)N2CCC[C@H]2C(=O)N[C@@H](Cc2c[nH]c3ccccc23)C(=O)N[C@@H](CO)C(=O)N[C@@H](Cc2csc3ccccc23)C(=O)N1C` (stereo partly shown) [Example 9141] ({CH2CO}-Y[NMeA]NPNLPWS[Bta][NMeNle][X7][ξC]G-NH2; thioether N-13) the pIC50 was 7.00 to 8.00. `CCCC[C@H]1C(=O)N(C)[C@@H](CCCC)C(=O)N[C@@H](CO)C(=O)NC(C(=O)NCC(N)=O)CSCC(=O)N[C@@H](Cc2ccc(O)cc2)C(=O)N(C)[C@@H](C)C(=O)N[C@@H](CC(N)=O)C(=O)N2CCC[C@H]2C(=O)N[C@@H](CC(N)=O)C(=O)N[C@@H](CC(C)C)C(=O)N2C[C@H](O)C[C@H]2C(=O)N[C@@H](Cc2c[nH]c3ccccc23)C(=O)N[C@@H](CO)C(=O)N[C@@H](Cc2c[nH]c3ccccc23)C(=O)N1C` (stereo partly shown) [Example 9142] ({CH2CO}-Y[NMeA]NPNL[Hyp]WSW[NMeNle][NMeNle]S[ξC]G-NH2; thioether N-14) showed a pIC50 of 8.00 to 9.00. `CCCC[C@H]1C(=O)N(C)[C@@H](CCCC)C(=O)N[C@@H](CO)C(=O)NC(C(=O)NCC(N)=O)CSCC(=O)N[C@@H](Cc2ccc(O)cc2)C(=O)N(C)[C@@H](C)C(=O)N[C@@H](CC(N)=O)C(=O)N2CCC[C@H]2C(=O)N[C@@H](CC(N)=O)C(=O)N[C@@H](CC(C)C)C(=O)N2C[C@H](O)C[C@H]2C(=O)N[C@@H](Cc2c[nH]c3ccccc23)C(=O)N[C@@H](CO)C(=O)N[C@@H](Cc2csc3ccccc23)C(=O)N1C` (stereo partly shown) [Example 9143] ({CH2CO}-Y[NMeA]NPNL[Hyp]WS[Bta][NMeNle][NMeNle]S[ξC]G-NH2; thioether N-14) gave a pIC50 of 7.00 to 8.00. `CCCC[C@H]1C(=O)N(C)[C@@H](CCCC)C(=O)N[C@@H](CCCNC(=N)N)C(=O)NC(C(=O)NCC(N)=O)CSCC(=O)N[C@@H](Cc2ccc(O)cc2)C(=O)N(C)[C@@H](C)C(=O)N[C@@H](Cc2cnc[nH]2)C(=O)N2CCC[C@H]2C(=O)N[C@@H](CC(N)=O)C(=O)N[C@@H](CC(C)C)C(=O)N2CCC[C@H]2C(=O)N[C@@H](Cc2c[nH]c3ccccc23)C(=O)N[C@@H](CO)C(=O)N[C@@H](Cc2c[nH]c3ccccc23)C(=O)N1C` (stereo partly shown) [Example 9144] ({CH2CO}-Y[NMeA]HPNLPWSW[NMeNle][NMeNle]R[ξC]G-NH2; thioether N-14) gave a pIC50 of 8.00 to 9.00. In the case of `CCCC[C@H]1C(=O)N(C)[C@@H](CCCC)C(=O)N[C@@H](CCCNC(=N)N)C(=O)NC(C(=O)NCC(N)=O)CSCC(=O)N[C@@H](Cc2ccc(O)cc2)C(=O)N(C)[C@@H](C)C(=O)N[C@@H](Cc2cnc[nH]2)C(=O)N2CCC[C@H]2C(=O)N[C@@H](CC(N)=O)C(=O)N[C@@H](CC(C)C)C(=O)N2CCC[C@H]2C(=O)N[C@@H](Cc2c[nH]c3ccccc23)C(=O)N[C@@H](CO)C(=O)N[C@@H](Cc2csc3ccccc23)C(=O)N1C` (stereo partly shown) [Example 9145] ({CH2CO}-Y[NMeA]HPNLPWS[Bta][NMeNle][NMeNle]R[ξC]G-NH2; thioether N-14), the pIC50 was 8.00 to 9.00. `CCCC[C@H]1C(=O)N(C)[C@@H](CCCC)C(=O)N[C@@H](CCCNC(=N)N)C(=O)NC(C(=O)NCC(N)=O)CSCC(=O)N[C@@H](Cc2ccc(O)cc2)C(=O)N(C)[C@@H](C)C(=O)N[C@@H](Cc2cnc[nH]2)C(=O)N2CCC[C@H]2C(=O)N[C@@H](CC(N)=O)C(=O)N[C@@H](CC(C)C)C(=O)N2C[C@H](O)C[C@H]2C(=O)N[C@@H](Cc2c[nH]c3ccccc23)C(=O)N[C@@H](CO)C(=O)N[C@@H](Cc2c[nH]c3ccccc23)C(=O)N1C` (stereo partly shown) [Example 9146] ({CH2CO}-Y[NMeA]HPNL[Hyp]WSW[NMeNle][NMeNle]R[ξC]G-NH2; thioether N-14) gave a pIC50 of 8.00 to 9.00.
